The numbers were not newly measured in US7858570B2, “Compositions and methods for removing urushiol and treating the resulting skin condition” (priority 2004, dated 2010), which cites them from elsewhere.

For series [1] the following is noted: for cloud point: 1% H2O.
The test system of series [2] is human immuno deficiency virus. To be noted: in the test tube.
For series [3] the following is noted: in vivo.

For the compound `NC(=O)NC1NC(=O)NC1=O` (centres unmarked) [allantoin, glyoxyl-diureide], the solubility in water (at 25° C.) is given as 0.5%. For the same compound, the “solubility (in words)” value (water and alcohol) was “soluble in water and alcohol”.

Consider “nonylphenol ethoxylate [10 mol nonylphenol ethoxylate]”, for which the pH in series [1] (10% sol.) is recorded as 6.3.

For the compound “nonylphenol ethoxylate [30 mol nonylphenol ethoxylate]”, in series [1], the cloud point entry was “greater than 100 °C”.

Consider `CCCCCCCCCc1ccc(OCCOCCOCCOCCOCCOCCOCCOCCOCCO)cc1` [nonoxynol-9, nonylphenoxypolyethoxyethanol], for which the “concentration in a solution that stops HIV from reproducing” value in series [2] is recorded as 0.05%.

In the case of “nonylphenol ethoxylate [8 mol nonylphenol ethoxylate]”, the cloud point entry in series [1] is “less than 25 °C”.

As to “nonylphenol ethoxylate [4 mol nonylphenol ethoxylate]”, the cloud point entry in series [1] is “less than 25 °C”.

“nonylphenol ethoxylate [2 mol nonylphenol ethoxylate]”: the cloud point entry in series [1] is “less than 25 °C”.

Turning to “nonylphenol ethoxylate [50 mol nonylphenol ethoxylate]”, in series [1], the cloud point entry was “greater than 100 °C”.

For “nonylphenol ethoxylate [12 mol nonylphenol ethoxylate]”, in series [1], the cloud point was 78-83 °C.

As for urushiol, the “time from skin exposure until rash breaks out” value in series [3] is 24 to 72 h.

Turning to “nonylphenol ethoxylate [6 mol nonylphenol ethoxylate]”, the cloud point entry in series [1] was “less than 25 °C”.

Consider “nonylphenol ethoxylate [5 mol nonylphenol ethoxylate]”, for which the cloud point entry in series [1] is “less than 25 °C”.

Take “nonylphenol ethoxylate [14 mol nonylphenol ethoxylate]”: in series [1], the cloud point is 92-99 °C.
